Experimental data taken from ChEMBL document CHEMBL1123001, “Ibotenic acid analogues. Synthesis, molecular flexibility, and in vitro activity of agonists and antagonists at central glutamic acid receptors” (J Med Chem, 1985).
Active and inactive are the calls of the source. No cut-off for these calls is given here.

Assays:
Rattus norvegicus [1] = species on record: Rattus norvegicus; assay: Inhibition of [3H]AMPA binding in rat brain membrane was evaluated; format: functional
[2] = NMDA Antagonist activity was evaluated; na means no activity; format: functional
[3] = Antagonist activity was evaluated by NMDA-induced excitations of feline spinal neuron; activity is seen; format: functional; conditions: filed as antagonist
[4] = Antagonist activity was evaluated by NMDA-induced excitations of feline spinal neuron; no activity; format: functional
[5] = NMDA Antagonist activity was evaluated; na means no activity; na means no activity; format: functional
Rattus norvegicus [6] = species on record: Rattus norvegicus; assay: GDEE-sensitive neuronal excitant (Relative potency) was evaluated; +++; format: functional, organism-based

Row | SMILES | IC50 (Rattus norvegicus [1]) [µM] | Antagonist activity [2] | Antagonist activity [3] | Antagonist activity [4] | Antagonist activity [5] | Relative potency (Rattus norvegicus [6])
1 | N[C@@H](CCC(=O)O)C(=O)O [GLUTAMIC ACID] | 1.3 | inactive | – | – | – | –
2 | Cc1onc(O)c1C[C@@H](N)C(=O)O | 4.8 | inactive | – | – | – | –
3 | Cc1c(O)noc1C(C)C(N)C(=O)O (centres undefined) | > 100 | inactive | – | – | – | –
4 | NC(CCc1cc(O)no1)C(=O)O (centres undefined) | 64 | – | Antagonist | – | – | –
5 | NC(Cc1c(O)noc1CBr)C(=O)O (centres undefined) | 0.6 | inactive | – | – | – | –
6 | NC(CCCc1cc(O)no1)C(=O)O (centres undefined) | > 100 | – | Antagonist | – | – | –
7 | CC(C)(C)c1onc(O)c1CC(N)C(=O)O (centres undefined) | 10.6 | – | – | inactive | – | –
8 | Cc1onc(O)c1C[C@H](N)C(=O)O [(S)-AMPA] | 0.6 | inactive | – | – | – | –
9 | Cc1onc(O)c1CC(N)C(=O)O (racemic) [(R,S)-AMPA] | 0.8 | – | – | – | inactive | Active
